Data published in paper PMC13429874, “ABHD2 activity is not required for the non-genomic action of progesterone on human sperm” (Human Reproduction (Oxford, England), 2026).
Entries after “also recorded” stand apart in the source; their conditions may differ. Where two headings read alike, the source gives them in different places.

Tests used:
[1] = biological target: T1, full-length human ABHD2 (ABHD2^FL) (Homo sapiens, UniProt P08910); experiment: ABHD2^FL enzymatic activity assay with 7-HCA substrate; type: biochemical; settings: for IC50: Supplementary Table S2, read-out: IC50 measured in ABHD2^FL in the 7-HCA Assay
T1 construct: TEV site-eGFP-8xHis (C, cleaved yes); made in house; host or cells: SF9 insect cells (baculovirus)
T1 sequence (P08910 1-425): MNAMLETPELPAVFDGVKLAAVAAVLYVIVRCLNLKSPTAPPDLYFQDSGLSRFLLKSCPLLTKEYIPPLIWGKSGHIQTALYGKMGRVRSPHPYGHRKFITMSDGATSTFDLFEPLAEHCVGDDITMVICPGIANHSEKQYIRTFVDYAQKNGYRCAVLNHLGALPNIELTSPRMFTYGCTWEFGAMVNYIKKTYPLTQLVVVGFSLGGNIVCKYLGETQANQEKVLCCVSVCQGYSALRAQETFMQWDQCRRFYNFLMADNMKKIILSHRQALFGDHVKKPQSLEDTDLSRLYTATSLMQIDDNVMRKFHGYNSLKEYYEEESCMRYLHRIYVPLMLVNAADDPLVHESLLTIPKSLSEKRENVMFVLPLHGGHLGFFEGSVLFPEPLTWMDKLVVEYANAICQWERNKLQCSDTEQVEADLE

ABHD2^L33–E425 [2] = biological target: T2, ABHD2^L33–E425 (Homo sapiens, UniProt P08910); experiment: ABHD2^L33-E425 fluorometric enzymatic activity assay with 7-HCA substrate; type: biochemical; settings: for IC50: 10 nM enzyme, 10 µM 7-HCA, read-out: IC50 for ABHD2^L33-425, fluorometric assay using 7-HCA
T2 construct: expression for ABHD2 amino acids L33–E425, in which a predicted transmembrane domain (amino acids 1–32) is removed; His6-FLAG (N); made in house; host or cells: E. coli BL21(DE3)-R3-pRARE2
T2 sequence (P08910 33-425): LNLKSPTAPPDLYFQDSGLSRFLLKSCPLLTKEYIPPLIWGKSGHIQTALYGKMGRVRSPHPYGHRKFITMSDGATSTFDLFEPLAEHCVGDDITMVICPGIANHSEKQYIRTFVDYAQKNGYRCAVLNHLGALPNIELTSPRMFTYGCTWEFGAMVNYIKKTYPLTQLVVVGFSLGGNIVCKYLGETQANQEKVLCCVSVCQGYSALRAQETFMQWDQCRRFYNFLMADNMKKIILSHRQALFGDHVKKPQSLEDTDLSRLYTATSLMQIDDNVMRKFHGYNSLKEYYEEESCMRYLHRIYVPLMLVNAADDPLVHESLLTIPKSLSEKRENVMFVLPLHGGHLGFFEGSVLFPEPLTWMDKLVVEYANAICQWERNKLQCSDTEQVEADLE

ABHD2^L33–E425 [3] = biological target: T2, ABHD2^L33–E425; experiment: Differential scanning fluorimetry (DSF) with purified ABHD2^L33–E425; type: binding; settings: for ΔTm shift for ABHD2^L33-425 determined by DSF: purified protein; for effect on heat-induced denaturation of ABHD2^L33–E425 (DSF binding): 40 µM steroid
human sperm [4] = experiment: Sperm intracellular Ca2+ measurements (Fluo-4); type: cell-based
Experimental: Measurements of the changes in sperm intracellular Ca^2+ concentration ([Ca^2+]i) were performed on motile human sperm purified by swim-up. Semen samples were allowed to liquefy for 15–60 min at 37°C, and 0.5–1 ml liquified semen was layered beneath 4 ml human tubal fluid medium (HTF; 97.8 mM NaCl, 4.69 mM KCl, 0.2 mM MgSO4, 0.37 mM KH2PO4, 2.04 mM CaCl2, 2.78 mM glucose, 0.33 mM sodium pyruvate, 21.4 mM lactic acid, 4 mM NaHCO3, and 21 mM HEPES pH 7.35 adjusted with NaOH) in 50 ml conical tubes. Motile sperm were allowed to swim up into the HTF for 60–90 min at 37°C, collected, washed twice (700 × g, 20 min, 37°C), and resuspended in HTF containing 3 mg/ml HSA at a density of 1 × 10^7 sperm/ml. Changes of [Ca^2+]i in motile human sperm were measured as previously described ([Rennhack et al., 2018]), using a fluorescence plate-reader assay (FLUOstar Omega, BMG LABTECH) with 384-well plates. Swim-up-purified sperm were loaded with Fluo4-AM (5 μM, Thermo Fisher Scientific, Waltham, MA, USA) and Pluronic F-127 (0.05% w/v) for 20 min at 37°C. Excess dye was removed by centrifugation at 700 × g for 5 min, supernatant removal, and resuspension to 5 × 10^6 sperm/ml in HTF.
For recordings, wells of a 384-well plate were filled with 50 μl of the dye-loaded sperm suspension. Fluorescence was excited at 480 nm, and emission was recorded at 520 nm using a plate reader (Fluostar Omega, BMG Labtech). After establishing a baseline for at least 60 s, 25 µl test compound solutions were added and the fluorescence response recorded. After 4 min, 7.5 µl progesterone was added to reach a final concentration of 3 µM, and ensuing changes in fluorescence were recorded. For the analysis of compound-evoked Ca^2+ signal, basal fluorescence (F0) was determined prior to compound addition. For the determination of inhibitory effects of compounds on progesterone-evoked Ca^2+ signals, basal fluorescence (F0) was determined before progesterone addition. The CatSper inhibitor TS150 ([Schierling et al., 2023]) was used as a control. Each compound was tested in technical duplicates across ≥3 biological replicates, using sperm from at least two donors, and performed on at least two separate days.
Data analysis and graphical representation were performed with GraphPad Prism software version 10.6.1 (San Diego, CA, USA). Changes in Fluo-4 fluorescence are depicted as ΔF/F0 (%), i.e. the change in fluorescence (ΔF) relative to the mean basal fluorescence (F0) before application of buffer or compounds/ligands, to correct for intra- and inter-experimental variations in basal fluorescence among individual wells or to correct for compound-evoked changes in fluorescence. Signal amplitudes evoked in the presence of compounds were normalized to the maximal signal amplitude evoked by 3 µM progesterone in the absence of the compound (set to 1) to ease comparisons between experiments.

human sperm [5] = experiment: Sperm hyperactivation assay (CASA); type: cell-based; settings: 10 µM compound, 30 min
Experimental: Sperm hyperactivation was assessed in human sperm purified by density gradient centrifugation. Semen samples (n = 7) were allowed to liquefy for 15–30 min at 37°C, and up to 2 ml of liquified semen was layered onto a two-step GM501 gradient system (45%/90%; Gynemed; Sierksdorf, Germany) pre-equilibrated at 37°C. Gradients were centrifuged for 20 min at 400 × g (no break). The 90% pellet was collected, washed in SpermActive medium (Gynemed; composition per manufacturer: NaCl, KCl, MgSO4.7H2O, KH2PO4, 1.77 mM CaCl2.2H2O, D(+)-glucose anhydrous, sodium pyruvate, sodium lactate, EDTA, alanyl-glutamine, essential and non-essential amino acids, 25.71 mM NaHCO3, 15 mM HEPES, 5 g/l human serum albumin, 10 mg/l gentamicin, and phenol red), and incubated for at least 2 h at 37°C, 5% CO2.
For compound testing, sperm suspensions with 7.5 × 10^6 sperm/ml in SpermActive were treated with either DMSO (vehicle) or 10 µM test compound. For basal and induced hyperactivation conditions, DMSO or progesterone (3 µM), respectively, was added. Samples were incubated for 30 min at 37°C, 5% CO2, before motility analysis.
Motility was analyzed using a CASA system (CEROSII^TM Animal Motility, software version 1.16; Hamilton Thorne, Beverly, MA, USA), mounted on an Axiolab 5 microscope (Zeiss, Germany), equipped with a TPi-SX Thermal Plate (Tokai Hit; Shizuoka-ken, Japan) and a JAI CM-040-GE CCD camera (JAI; Tokyo, Japan). Leja slides (20 µm chamber depth; Leja Products B.V., Nieuw-Vennep, The Netherlands) were pre-warmed to 37°C, cleaned with lens paper, and loaded by capillary action with 6 µl sperm suspension; capillary correction was set to 1.3. Sperm tracks were recorded at 37°C using a 10× negative-phase objective, acquiring 60 frames at 60 Hz with 4 ms exposure and gain set to 600. For each sample and condition, 300–500 motile sperm from at least 10 non-overlapping fields were analyzed. Hyperactive sperm were identified using the SORT function with the following Boolean argument: VCL > 150 µm/s and LIN < 50% and ALH > 7 µm. For each sample and condition, the percentage of hyperactive sperm was normalized to the percentage of motile sperm, and the mean of two technical duplicates was reported.
Statistical analysis was performed using GraphPad Prism 10 for Windows (version 10.6.1). Data normality was assessed using Shapiro–Wilk test. Differences between basal and induced hyperactivation were evaluated using a paired t-test, with effective pairing confirmed across all comparisons. P < 0.05 was considered statistically significant.

[6] = 7-HCA and RB substrates (Suppl. Fig. S4A,B), weak effects at ≥5 µM
[7] = 5 µM steroid or triterpenoid, 300 nM 7-HCA

With `Cc1ccc(C2CCCCN2C(=O)N2CCCCC2)cc1` (centres unmarked) [Compound 5] the IC50 [1] was 4200 nM, the IC50 (ABHD2^L33–E425 [2]) was 940 nM and the “effect on melting temperature / thermal stability of ABHD2^L33-E425 (DSF), in words” value (ABHD2^L33–E425 [3]; 10 µM compound, 30 min pre-incubation) was “increased melting temperature”. For the same compound, the “ΔTm shift for ABHD2^L33-425 determined by DSF” value (from here on “ΔTm shift”) (ABHD2^L33–E425 [3]) was 3.3 °C.
With `C[C@]12CC[C@@H]3c4ccc(O)cc4CC[C@H]3[C@@H]1CC[C@@H]2O` [17β-estradiol] the “effect on enzymatic activity of purified ABHD2^FL” value (“effect … of purified ABHD2^FL” for short) [1, 6] was “did not alter” and the “effect on enzymatic activity of purified ABHD2^L33–E425” value (from here on “effect … of purified ABHD2^L33–E425”) (ABHD2^L33–E425 [2]; [7]) was “did not alter”.
In the case of `C[C@]12CCC(=O)C=C1CC[C@@H]1[C@@H]2[C@@H](O)C[C@@]2(C)[C@H]1CC[C@]2(O)C(=O)CO` [hydrocortisone], the “effect … of purified ABHD2^FL” value [1, 6] is reported as “did not alter”, the “effect … of purified ABHD2^L33–E425” value (ABHD2^L33–E425 [2]; [7]) is reported as “did not alter” and the “effect on heat-induced denaturation of ABHD2^L33–E425 (DSF binding)” value (ABHD2^L33–E425 [3]; 30 min pre-incubation) is reported as “did not affect”.
With `C[C@]12CC[C@H]3[C@@H](CCC4=CC(=O)CC[C@@]43C)[C@@H]1CC[C@@H]2O` [testosterone] the “effect … of purified ABHD2^FL” value [1] was “did not alter”, the “effect … of purified ABHD2^L33–E425” value (ABHD2^L33–E425 [2]) was “did not alter” and the “effect on heat-induced denaturation of ABHD2^L33–E425 (DSF binding)” value (ABHD2^L33–E425 [3]; 30 min pre-incubation) was “did not affect”.
For `O=C(N1CCCCC1)N1CCCC[C@H]1Cc1ccccc1` [(S)-1], the IC50 (ABHD2^L33–E425 [2]) was 3000 nM and the “ΔTm shift” value (ABHD2^L33–E425 [3]) was 2.5 °C.
`O=C(N1CCCCC1)N1CCCC[C@H]1c1ccccc1` [(S)-2] was tested, and the IC50 [1] was 5900 nM, the IC50 (ABHD2^L33–E425 [2]) was 2100 nM and the “ΔTm shift” value (ABHD2^L33–E425 [3]) was 2.7 °C.
For `O=C(N1CCCCC1)N1CCCC[C@@H]1Cc1ccccc1` [(R)-1], the “compound-evoked changes in [Ca2+]i” value (human sperm [4]; 10 µM compound) was “only minuscule changes”, the “effect on progesterone-induced Ca2+ signal (amplitude and waveform)” value (human sperm [4]; compounds 10 µM, TS150 60 µM, progesterone 3 µM) was “similar” and the “effect on progesterone-induced hyperactivation” value (human sperm [5]; 3 µM progesterone) was “not affected”. For the same compound, the “effect on basal hyperactivation” value (human sperm [5]) was “No statistically significant differences; also recorded: did not affect”, the IC50 (ABHD2^L33–E425 [2]) was 1200 nM and the “ΔTm shift” value (ABHD2^L33–E425 [3]) was 3.0 °C.
